The results in this text go back to patent publication EP0774461A1, “Excitatory amino acid derivatives” (ELI LILLY AND COMPANY, priority 1995, dated 1997).

For the assay, the system named is metabotropic glutamate receptors. Kind of assay: displacement of 1S,3R-ACPD-sensitive [3H]glutamate binding to rat brain cell membranes. The note with it: selective displacement of 1S,3R-ACPD-sensitive [3H]glutamate binding; crude membranes of rat forebrain. The protocol:
The binding of [^3H]glutamate was conducted with crude membranes of rat forebrain as described by Schoepp and True. Schoepp and True, Neuroscience Lett., 145, 100-104 (1992) and Wright et al., J. Neurochemistry 63: 938-945 (1994).

SMILES strings stand for the structures.

On to `N[C@]1(C(=O)O)CO[C@@H]2[C@@H](C(=O)O)[C@@H]21` (racemic) [Example 1, 1SR,4SR,5RS,6SR-4-Amino-2-Oxabicyclo[3.1.0]hexane-4,6-dicarboxylic Acid], for which the IC50 stood at 0.055 µM.
